Source: patent US5441940A, “Process for the preparation of water soluble primycin and its components and pharmaceutical compositions containing them” (Chinoin Gyogyszer es Vegyeszeti Termekek Gyara Rt., priority 1988, dated 1995)

How the values were obtained:
[1] = Gelling of aqueous solutions (concentration-, time- and temperature-dependent); assay type: physicochemical; conditions: 5-10 mg/ml aqueous solution of the single component
Procedure: Water soluble primycin has a further very interesting characteristic. It has been observed that its aqueous solution spontaneously gellifies, the gelling time being dependent on the primycin content of the solution. As it appears from the curves of FIG. 1, the complete gelling of a 5-10 mg/ml aqueous primycin solution requires about 1-2 days, that of a 20-40 mg/ml primycin solution requires about 6-12 hours, whereas an aqueous primycin solution comprising more than 50 mg/ml of primycin completely gellifies even within 1-2 hours. The concentration-, time- and temperature-dependent gelling (polymerization) can be attributed presumably to the changes in orientation of the --OH groups in the molecule.
The gelling properties of the individual components of formulae (A1) and (A3) and those of the two-component mixture have also been examined. […] It can be assumed that this delay in gelling is connected with a change in conformation or with the orientation of the hydroxy groups.

Water solubility = assay type: physicochemical; conditions: for water solubility (product containing bound NH4+ and ammonium hydrocarbonate contaminations): before repeated ion exchange chromatography, m.p. 159-161 °C
Bacillus subtilis = assay: Agar diffusion test, minimum inhibitory concentration (MIC) on Bacillus subtilis; assay type: cell-based, Bacillus subtilis ATCC 6633; conditions: for MIC: Table II, agar diffusion test on Bacillus subtilis; for biological activity (on Bacillus subtilis): preparation examples
Procedure: Thin layer chromatography was performed on a Kieselgel 60 DC Alufolien F254 plate utilizing the upper phase of a 38:2:10:50 v/v mixture of butanol, ethanol, acetic acid and water as solvent and a mixture of vanillin and sulfuric acid at 105° C. as detecting agent. Biological evaluation was performed by agar diffusion test on Bacillus subtilis.
Agar diffusion technique was applied for the biological evaluation of primycin. As test organism Bacillus subtilis ATCC 6633 was applied.
Bacillus subtilis ATCC 6633 was cultivated on a Schaeffer medium (Nutrient Broth No. 2/oxoid) with the following composition:
The solution was heated in a pressurized vessel for 30 minutes at a pressure of 1.5 atmospheres, thereafter the pE was adjusted to 7.0-7.2 with 5-6 drops of 10N sodium hydroxide solution, 90 ml portions of the solution were poured into cultivating dishes, and the portions were supplemented with 10 ml, each, of the following solutions:
a) 236 mg (10^-3 mole) of Ca(NO3)2. 4H2 O dissolved in 100 ml of distilled water, and
b) […] (10^-5 mole) of MnCl2.4H2 O dissolved in 100 ml of distilled water.
The titrating nutrient medium was prepared as follows:
5 g of meat extract (Beef Extract Difco), 0.5 g of peptone (Bacto Peptone Difco), 1 g of Na2 HPO4 and 0.1 g of KH2 PO4 were dissolved in 100 ml of distilled water, the solution was boiled for 2 hours, and then the pH was adjusted to 8. The warm solution was filtered, allowed to cool, the filtrate was diluted with 900 ml of distilled water, and 20 g of agar (Bacto Agar Difco), dissolved in a Koch pot, were added to 1 liter of the solution. The pH of the warm solution was checked. 100 ml portions of the resulting solution were filled into storage flasks and then heat treated for 20 minutes in a pressurized vessel under a pressure of 1.5 atmospheres. […]
Solutions containing 20-50 /ug/ml of active agent were prepared from the substances to be examined [starting water insoluble primycin; water soluble primycin; a mixture of the compounds of formulae (A1) and (A3); a compound of formula (A1); a compound of formula (A3)] in water or in a 1:1:2 v/v mixture of butanol, ethanol and water, and the resulting solutions were diluted with buffered distilled water (0.15 molar phosphate buffer, pH=7.6) to concentrations of 0.05-0.1, 0.5-1.0 and 2.0 /ug/ml. […] Thereafter the diameters of the diffusive extinction zones were measured in mm, the obtained values were plotted on a semi-logarithmic scale against the concentrations of the standard serial dilutions, and the activity values were determined by extrapolation.

Row | SMILES | storage of aqueous solution without any observable change [1] | water solubility (product containing bound NH4+ and ammonium hydrocarbonate contaminations) (Water solubility) | water solubility (product containing bound NH4+ and ammonium hydrocarbonate contaminations) (Water solubility; listed as component of formula (A3)) [µg/mL] | Water solubility (Water solubility; water, listed as component of formula (A3)) | MIC (Bacillus subtilis) [µg/mL] | biological activity (on Bacillus subtilis) (Bacillus subtilis) | water solubility (in words) (Water solubility) | biological activity (on Bacillus subtilis) (Bacillus subtilis; listed as component of formula (A1))
1 | CCCCC1C(=O)OC(C(C)C(O)CCCNC(=N)N)C(C)C=C(C)CCCCC(O)CC(O)CC(O)CC(O)CC(O)C(OC2OC(CO)C(O)C2O)C=C(C)C(O)CCCC(O)CCCC(O)CCC(C)C1O (stereo not shown) [Compound of formula (A3)] | can be stored for days (maximum for one week) without any observable change | about 5 mg/ml | 2000 to 6000 | about 50 mg/ml | 0.5 to 1.0 | 0.5-1 /ug/ml |  | 
2 | CCCCC1C(=O)OC(C(C)C(O)CCCNC(=N)N)C(C)C=C(C)CCCCC(O)CC(O)CC(O)CC(O)CC(O)C(OC2OC(CO)C(O)C2O)C=C(C)C(O)CCCC(O)CCCC(O)CCC(C)C1O (stereo not shown) [Compound of formula (A1)] | can be stored for days (maximum for one week) without any observable change |  |  |  | 0.03 to 0.06 |  | well soluble in water | 0.03-0.06 /ug/ml
